In ChEMBL document CHEMBL1143500, “Novel heterocyclic thyromimetics” (Bioorg Med Chem Lett, 2005):

Target: T1, Thyroid hormone receptor (Homo sapiens, UniProt P10827+P10828)
T1 sequence (P10827 whole entry): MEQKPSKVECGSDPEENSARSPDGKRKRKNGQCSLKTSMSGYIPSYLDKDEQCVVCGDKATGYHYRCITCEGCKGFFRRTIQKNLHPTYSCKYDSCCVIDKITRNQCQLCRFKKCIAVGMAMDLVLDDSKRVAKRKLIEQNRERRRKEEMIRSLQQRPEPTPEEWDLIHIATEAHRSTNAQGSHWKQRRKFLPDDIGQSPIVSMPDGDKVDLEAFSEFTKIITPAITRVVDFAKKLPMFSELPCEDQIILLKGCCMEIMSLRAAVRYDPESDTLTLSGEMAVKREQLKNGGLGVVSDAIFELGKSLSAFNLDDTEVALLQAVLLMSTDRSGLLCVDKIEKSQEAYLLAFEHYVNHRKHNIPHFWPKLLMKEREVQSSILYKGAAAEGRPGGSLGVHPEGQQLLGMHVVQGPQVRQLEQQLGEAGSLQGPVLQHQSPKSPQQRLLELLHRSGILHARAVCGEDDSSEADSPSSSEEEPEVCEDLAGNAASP
T1 sequence (P10828 whole entry): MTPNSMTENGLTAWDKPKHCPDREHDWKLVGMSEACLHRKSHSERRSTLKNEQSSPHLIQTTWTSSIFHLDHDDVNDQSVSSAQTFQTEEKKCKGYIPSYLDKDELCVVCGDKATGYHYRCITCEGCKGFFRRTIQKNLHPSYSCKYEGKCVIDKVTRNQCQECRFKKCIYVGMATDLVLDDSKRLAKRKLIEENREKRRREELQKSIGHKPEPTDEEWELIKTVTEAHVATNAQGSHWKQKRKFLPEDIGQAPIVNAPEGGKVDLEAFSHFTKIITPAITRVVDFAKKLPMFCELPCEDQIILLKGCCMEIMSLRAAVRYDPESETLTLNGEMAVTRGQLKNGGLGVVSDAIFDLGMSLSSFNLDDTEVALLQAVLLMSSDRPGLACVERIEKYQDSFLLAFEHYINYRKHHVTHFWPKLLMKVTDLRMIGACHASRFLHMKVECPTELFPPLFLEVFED
Experiment: (§1) Agonist activity towards thyroid hormone receptor expressed in human HepG2 cells
Format: functional, cell-based

Row | SMILES | EC50 [nM]
1 | CCOC(=O)C(=O)Nc1cc(C)c(Oc2ccc3[nH]ccc3c2)c(C)c1 | 72
2 | CC(C)c1c[nH]c2ccc(Oc3c(C(F)(F)F)cc(/C=C/C(=O)O)cc3C(F)(F)F)cc12 | 3.2
3 | CCOC(=O)C(=O)Nc1cc(C(F)(F)F)c(Oc2ccc3[nH]cc(C(C)C)c3c2)c(C(F)(F)F)c1 | 3
4 | C=Cc1cc(NC(=O)C(=O)OCC)cc(C=C)c1Oc1ccc2[nH]cc(C(C)C)c2c1 | 7.8
5 | CCOC(=O)C(=O)Nc1cc(C(F)(F)F)c(Oc2ccc3[nH]cc(Oc4ccc(F)cc4)c3c2)c(C(F)(F)F)c1 | 495
6 | CCOC(=O)C(=O)Nc1cc(C(F)(F)F)c(Oc2ccc3[nH]cc(Cc4ccc(F)cc4)c3c2)c(C(F)(F)F)c1 | 11
7 | CCOC(=O)C(=O)Nc1cc(C)c(Oc2ccc3[nH]cc(C)c3c2)c(C)c1 | 15
8 | COC(=O)C(=O)Nc1cc(Cl)c(Oc2ccc3[nH]cc(C(C)C)c3c2)c(Cl)c1 | 4
9 | CCOC(=O)C(=O)Nc1cc(C(F)(F)F)c(Oc2ccc3[nH]ccc3c2)c(C(F)(F)F)c1 | 23
10 | CCOC(=O)C(=O)Nc1cc(Br)c(Oc2ccc3[nH]cc(C(C)C)c3c2)c(Br)c1 | 1.2
11 | CCOC(=O)C(=O)Nc1cc(C(F)(F)F)c(Oc2ccc3[nH]cc(-c4ccc(F)cc4)c3c2)c(C(F)(F)F)c1 | 115
12 | CC(C)c1c[nH]c2ccc(Oc3c(C(F)(F)F)cc(CC(=O)O)cc3C(F)(F)F)cc12 | 0.5
13 | CCCCCc1n[nH]c2ccc(Oc3c(C)cc(NC(=O)C(=O)OCC)cc3C)cc12 | 8
14 | CCOC(=O)C(=O)Nc1cc(C)c(Cc2ccc3[nH]cc(C(C)C)c3c2)c(C)c1 | 18
15 | CCOC(=O)C(=O)Nc1cc(C)c(Oc2ccc3[nH]cc(C(C)C)c3c2)c(C)c1 | 4
16 | CCOC(=O)C(=O)Nc1cc(Cl)c(Oc2ccc3[nH]ccc3c2)c(Cl)c1 | 15
17 | CCOC(=O)C(=O)Nc1cc(C)c(Oc2ccc3[nH]cc(C(C)C)c3c2)c(Cl)c1 | 4
18 | CCOC(=O)CC(=O)Nc1cc(C)c(Oc2ccc3[nH]cc(C(C)C)c3c2)c(Cl)c1 | 8
19 | CC(C)c1c[nH]c2ccc(Oc3c(C(F)(F)F)cc(CCC(=O)O)cc3C(F)(F)F)cc12 | 2.6

Target: T2, Thyroid hormone receptor (Homo sapiens) (UniProt P10827+P10828)
Experiment: Selectivity for THRalpha and THRbeta, ratio of EC50
Format: protein-complex assay

Row | SMILES | Selectivity
20 | CCOC(=O)C(=O)Nc1cc(C(F)(F)F)c(Oc2ccc3[nH]cc(C(C)C)c3c2)c(C(F)(F)F)c1 | 10
21 | CCOC(=O)C(=O)Nc1cc(C)c(Oc2ccc3[nH]cc(C(C)C)c3c2)c(C)c1 | 10
22 | CCOC(=O)CC(=O)Nc1cc(C)c(Oc2ccc3[nH]cc(C(C)C)c3c2)c(Cl)c1 | 10

Target: T2, Thyroid hormone receptor (Homo sapiens)
Experiment: as §1
Format: functional, cell-based

Row | SMILES | Concentration [nM]
23 | Cc1cc(OCC(=O)O)cc(C)c1Oc1ccc2[nH]cc(C(C)C)c2c1 | 24
